Measurements published in PMC9775191, “A Subset Screen of the Compounds Australia Scaffold Library Identifies 7-Acylaminodibenzoxazepinones as Potent and Selective Hits for Anti-Giardia Drug Discovery” (Biomedicines, 2022).

These compounds were tested on G. duodenalis BRIS/91/HEPU/1279 (assay: Primary Giardia screen at 10 µM (live-cell imaging, automated counting)). Conditions: 24 h.
Type: cell-based, Giardia duodenalis
Procedure, shortened: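 Percent growth versus 0.2% DMSO vehicle, background-corrected with media-only wells, is reported at 24 and 48 h from automated live-cell counts. Testing used 10 μM final in a 3% O2 atmosphere, with plate quality checked by Z' factor.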

Row | SMILES | Average % Inhibition 24h
1 | CCOC(=O)c1cccc(Nc2ncccc2S(N)(=O)=O)c1 [SN00799296] | 14.5%

Same assay, conditions: 24 h, first singlicate assay

Row | SMILES | % Inhibition n=1 24h
2 | CCOC(=O)c1cccc(Nc2ncccc2S(N)(=O)=O)c1 [SN00799296] | 29.1%

Same assay, conditions: 24 h, re-assessment

Row | SMILES | % Inhibition n=2 24h
3 | CCOC(=O)c1cccc(Nc2ncccc2S(N)(=O)=O)c1 [SN00799296] | 0.0%

Same assay, conditions: 48 h

Row | SMILES | Average % Inhibition 48h
4 | CCOC(=O)c1cccc(Nc2ncccc2S(N)(=O)=O)c1 [SN00799296] | 35.4%

Same assay, conditions: 48 h, first singlicate assay

Row | SMILES | % Inhibition n=1 48h
5 | COc1c(C(=O)Nc2ccc(C)cc2)oc2ccc(NC(=O)c3ccc(C)s3)cc12 [SN00798811] | 19.9%
6 | CC(=O)N1CCc2cc(C)c(S(=O)(=O)NC3CC3)cc21 [SN00798831] | 4.3%
7 | Cc1cc2c(cc1S(=O)(=O)NC(C)C)N(C(=O)C1CC1)CC2 [SN00798844] | 15.5%
8 | CC(C)c1csc(-c2ccc(S(=O)(=O)NCc3ccc(Cl)cc3)s2)n1 [SN00798864] | 0.0%
9 | CCC(C)NC(=O)C1CCN(c2cnc(N3CCSCC3)nc2)CC1 (stereo not shown) [SN00798903] | 12.6%
10 | CCCC(=O)Nc1ccc2c(c1)CN(C(=O)Cc1ccccc1C)C(C(=O)N(C)C)C2 (stereo not shown) [SN00798922] | 11.7%
11 | CC(=O)Nc1ccc2c(c1)CN(C(=O)C1CCCCC1)C(C(=O)N1CCCCC1)C2 (stereo not shown) [SN00798930] | 8.7%
12 | CCc1c(C2CCN(C(=O)c3cnccn3)CC2)noc1N [SN00798959] | 12.1%
13 | CCCn1c(C2CCN(C(=O)Nc3ccc(F)cc3)CC2)cc(=O)n2nccc12 [SN00798971] | 19.1%
14 | Cn1c(C2CCN(C(=O)Nc3ccccc3F)CC2)cc(=O)n2nccc12 [SN00798982] | 3.2%
15 | COc1ccc(-c2ncc3c(n2)CCN(C(=O)c2ccccc2C(F)(F)F)C3)cc1 [SN00799000] | 0.0%
16 | O=C(c1cccc(Br)c1)N1CCc2nc(-c3ccc(F)cc3)ncc2C1 [SN00799013] | 13.8%
17 | O=S(=O)(c1cccc2cccnc12)N1CCc2nc(-c3ccc(F)cc3)ncc2C1 [SN00799070] | 3.1%
18 | COc1ccc(S(=O)(=O)N2CCc3nc(-c4ccccc4)ncc3C2)cc1 [SN00799076] | 6.9%
19 | CCCN(C)C(=O)c1ccc(-c2ccnc(N3CCCCC3)n2)cc1 [SN00799110] | 0.0%
20 | CCC(C)NC(=O)CC1Sc2ncccc2N(C)C1=O (stereo not shown) [SN00799120] | 11.7%
21 | O=C(Cn1c(=O)c2nncn2c2ncccc21)N1CCN(c2cccc(Cl)c2)CC1 [SN00799155] | 17.9%
22 | CCn1nnc2c(C(=O)NCCC3=CCCCC3)c(C)sc2c1=O [SN00799184] | 2.6%
23 | CCCNC(=O)c1cncc(-c2cccc(NC(=O)CC)c2)c1 [SN00799189] | 0.0%
24 | Cc1ccccc1C(=O)N1CCC(Cc2nnc(-c3ccccc3)o2)CC1 [SN00799218] | 12.0%
25 | O=C(N1CCC(CCOCc2cccc(F)c2)CC1)C1(c2ccccc2)CC1 [SN00799224] | 0.0%
26 | CCOC(=O)c1cccc(Nc2ncccc2S(N)(=O)=O)c1 [SN00799296] | 70.8%
27 | CC(C)(C)NC(=O)c1cc(-c2cccnc2)[nH]n1 [SN00799308] | 15.5%
28 | O=C(c1cc(-c2cccnc2)[nH]n1)N1CCCC1 [SN00799309] | 13.7%
29 | Cc1cn2c(S(=O)(=O)N3CCN(c4ccc(F)cc4)CC3)c(C(C)C)nc2s1 [SN00799325] | 19.4%
30 | COc1ccc(CNS(=O)(=O)c2c(C)nc3sc(C)nn23)cc1 [SN00799344] | 4.3%
31 | CC(=O)c1cccc(NC(=O)CN2CCC(c3nc(-c4ccccc4)no3)CC2)c1 [SN00799373] | 0.0%

Row | SMILES | % Inhibition n=1 48h
32 | O=C(CN1CCC(c2nc(-c3ccc(F)cc3)no2)CC1)NCc1ccccc1 [SN00799393] | 0.0%
33 | O=C(CCn1ccn2nc(-c3ccccc3Cl)cc2c1=O)NCc1ccc(F)cc1 [SN00799415] | 0.0%
34 | COc1ccc(-c2cccc(NC(=O)c3ccccc3Br)c2)nn1 [SN00799416] | 16.0%
35 | Cc1nc(-c2ccccn2)cc2nn(CC(=O)N3CCC(Cc4ccccc4)CC3)c(=O)n12 [SN00799441] | 4.9%
36 | Cc1ccc(NC(=O)c2cnc3c(c2)c(=O)n(C)c(=O)n3-c2ccccc2)cc1 [SN00799453] | 0.0%
37 | Cc1ccc(NC(=O)CN2N=C(C(=O)Nc3ccc(F)cc3)CCC2=O)cc1F [SN00799502] | 8.0%
38 | O=C(COc1ccc(F)cc1)N1CCN(c2nc(CN3CCCC3)cs2)CC1 [SN00799511] | 1.1%
39 | Cc1cccc(-c2nc3sc(N4CCCCC4)nn3c2NC(=O)C2CC2)c1 [SN00799546] | 23.2%
40 | CN(Cc1ccccc1)C(=O)c1cccc2c1CCN2C(=O)Nc1ccccc1 [SN00799558] | 0.0%
41 | Cn1c(C(=O)N2CCN(c3ccccc3)CC2)cc2c1CCN(Cc1ccccc1)C2 [SN00799590] | 1.6%
42 | Cc1cccc(CN2CCc3c(cc(C(=O)NC(C)(C)C)n3C)C2)c1 [SN00799594] | 0.0%
43 | Cc1csc(-c2ccc(CNC(=O)c3n[nH]c4ccccc34)cc2)n1 [SN00799624] | 25.2%
44 | CSc1ccc(NC(=O)c2cn(C)c3ncccc23)cc1 [SN00799688] | 9.5%
45 | CCOCCn1c(N2CCCCC2)nc(C)cc1=O [SN00799709] | 33.8%
46 | O=C(Nc1cnc(-c2ccccc2)nc1)c1ccccc1C(F)(F)F [SN00799772] | 0.0%
47 | CN1CCCc2cc(C(=O)NCc3cccs3)sc21 [SN00799810] | 0.0%
48 | CCOc1ccc2nc(C(=O)N3CCN(c4cccc(C)c4C)CC3)cn2n1 [SN00799885] | 9.3%
49 | O=C(c1cn2ccccc2n1)N1CCN(c2ccccc2F)CC1 [SN00799900] | 4.9%
50 | CSc1ccc(CNC(=O)c2cn3cc(C)ccc3n2)cc1 [SN00799926] | 26.2%
51 | CCCn1ccc2sc(C)c(C(=O)NC3CCCCC3)c2c1=O [SN00799943] | 16.0%
52 | Cc1sc2ccn(CC(C)C)c(=O)c2c1C(=O)NCCN1CCCCC1 [SN00799956] | 23.1%
53 | CNc1cccnc1OC1CCN(C(=O)CCc2nc3ccccc3[nH]2)C1 (stereo not shown) [SN00799967] | 11.3%
54 | O=S(=O)(Nc1ccc(OC2CCNCC2)nc1)c1ccccc1 [SN00799991] | 0.0%
55 | COCC(=O)N1CCC(Oc2ncccc2C(=O)N(C)C)CC1 [SN00800001] | 4.8%
56 | CN1CCC(Oc2ncccc2C(=O)N2CCOCC2)CC1 [SN00800013] | 15.5%
57 | Cc1ccc(C(=O)N2CCC(Oc3ncccc3C(=O)N3CCCCC3)C2)c(C)c1 (stereo not shown) [SN00800036] | 0.0%
58 | CN(C)C(=O)c1ccc(OC2CCN(C(=O)c3ccco3)CC2)nc1 [SN00800077] | 13.6%

Row | SMILES | % Inhibition n=1 48h
59 | CN(C)C(=O)c1ccc(OC2CCN(Cc3ccccn3)C2)nc1 (stereo not shown) [SN00800120] | 6.6%
60 | O=C(c1ccoc1)N1CCC(Oc2nccnc2N2CCc3ccccc32)C1 (stereo not shown) [SN00800151] | 22.8%
61 | COc1cccc(N2CCN(C(=O)C3CCN(c4nc(NC(C)=O)ns4)CC3)CC2)c1 [SN00800160] | 16.2%
62 | CC(=O)Nc1nsc(N2CCCC(C(=O)NCc3ccccc3Cl)C2)n1 (stereo not shown) [SN00800180] | 5.9%
63 | CCN1c2cc(Cl)ccc2C(=O)NC12CCN(C(=O)Nc1ccc3c(c1)OCO3)CC2 [SN00800192] | 8.9%
64 | CCc1nn(CC)c(=O)c2cc(S(=O)(=O)N3CCOCC3)cn12 [SN00800228] | 11.8%
65 | CN(C)C(=O)c1[nH]nc2c1CN(C(=O)CCc1ccccc1)CC2 [SN00800269] | 0.0%
66 | O=C(c1cccc(N2CCNC(c3ccccc3)C2)n1)N1CCN(c2ccccc2)CC1 (stereo not shown) [SN00800322] | 13.5%
67 | O=C(c1ccccc1)N1CCN(c2cc(-c3ccc(Cl)cc3)n[nH]2)CC1 [SN00800335] | 14.4%
68 | COc1ccc(-c2cc(N3CCN(C(=O)Cc4ccc(F)cc4)CC3)[nH]n2)cc1 [SN00800353] | 0.0%
69 | COc1ccc(-c2cc(N3CCC(NC(=O)Cc4ccccc4)CC3)[nH]n2)cc1 [SN00800379] | 0.0%
70 | O=C(NC1CCN(c2cc(-c3cccs3)n[nH]2)C1)c1ccc2[nH]cnc2c1 (stereo not shown) [SN00800411] | 29.6%
71 | CC1CCN(c2nc(C(=O)NCCc3ccncc3)nc3c2cnn3C)CC1 [SN00800416] | 9.4%
72 | CCOC(=O)c1ccc(NC(=O)c2nc(C)n(C3CCN(C(C)=O)CC3)c2C)cc1 [SN00800452] | 13.2%
73 | O=C1CC(C(=O)N2CCN(c3ccccc3)CC2)CN1CCc1ccccc1 (stereo not shown) [SN00800474] | 6.2%
74 | CCc1noc(C2(NC(=O)c3cc(-c4ccccc4)n[nH]3)CCCCC2)n1 [SN00800487] | 0.0%
75 | Cc1ccc(CNC(=O)N2CCCN(c3ncccc3-c3nc(C4CC4)no3)CC2)cc1 [SN00800535] | 34.3%
76 | Cc1nnc(-c2nnc(NCc3ccccc3)c3ccccc23)o1 [SN00800540] | 1.6%
77 | CCc1nnc(-c2nnc(NCc3ccc4c(c3)OCO4)c3ccccc23)o1 [SN00800558] | 0.0%
78 | CCn1ccc(C(=O)Nc2ccc3c(c2)Sc2ncccc2C(=O)N3C)n1 [SN00800580] | 19.0%
79 | Cc1cc(NS(=O)(=O)c2cc(-c3[nH]ncc3C(=O)N3CCCC3)oc2C)ccc1F [SN00800668] | 0.0%
80 | CCOC(=O)CCNC(=O)N1CCc2c(nc3cc(-c4ccccc4Cl)[nH]n3c2=O)C1 [SN00800844] | 13.6%
81 | COc1ccc(-c2cc3nc4c(c(=O)n3[nH]2)CNCC4)cc1 [SN00800876] | 0.0%
82 | Cc1ccc(CNC(=O)N2CCN(C3=CC4=NCC(C)N4C=N3)CC2)cc1 (stereo not shown) [SN00800883] | 11.9%
83 | CCC1CN2C=NC(N3CCN(C(=O)CCc4ccccc4OC)CC3)=CC2=N1 (stereo not shown) [SN00800900] | 25.4%
84 | O=C(N[C@H]1C[C@@H]2C[C@H]1N(C(=O)Nc1ccc3c(c1)CCC3)C2)c1ccccc1 [SN00800945] | 6.6%

Same assay, conditions: 48 h, re-assessment

Row | SMILES | % Inhibition n=2 48h
85 | CCOC(=O)c1cccc(Nc2ncccc2S(N)(=O)=O)c1 [SN00799296] | 0.0%
